In brackets after ≈: the same amount, converted by molar mass.
Key:
[1] = target: Escherichia coli LpxH (UDP-2,3-diacylglucosamine hydrolase) (Escherichia coli (strain K12), UniProt P43341); experiment: 50% Inhibitory Concentration (IC50) to LpxH, UMP/CMP-Glo Glycosyltransferase Assay kit; format: biochemical
In short: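 LpxH hydrolysis of UDP-2,3-diacylglucosamine to lipid X and UMP; UMP produced is converted to ATP and quantified by luciferase luminescence (UMP/CMP-Glo). Inhibition taken from reduced light output.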

E. coli (ATCC 25922) = experiment: Minimal Inhibitory Concentration (MIC) assay, E. coli; format: cell-based; conditions: Escherichia coli, ATCC25922; E. coli ATCC 25922, CAMHB, 20 hours at 35° C.; read-out: MIC E. coli ATCC 25922
In short: (§1)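 Broth microdilution in cation-adjusted Mueller Hinton broth, inoculum 5×10^5 CFU/mL, compounds 2-fold serially diluted from 10 mM DMSO stocks. Plates incubated 20 hours at 35° C in ambient air; MIC (μg/mL) is the lowest concentration preventing visible growth.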

[2] = tested on: K. pneumonia (ATCC 43816); experiment: Minimal Inhibitory Concentration (MIC) assay, K. pneumonia; format: cell-based; conditions: Klebsiella pneumoniae; K. pneumoniae ATCC43816, CAMHB, 20 hours at 35° C.; read-out: MIC K. pneumoniae ATCC43816
In short: as §1

Sequence of Escherichia coli LpxH (UDP-2,3-diacylglucosamine hydrolase) (P43341 whole entry): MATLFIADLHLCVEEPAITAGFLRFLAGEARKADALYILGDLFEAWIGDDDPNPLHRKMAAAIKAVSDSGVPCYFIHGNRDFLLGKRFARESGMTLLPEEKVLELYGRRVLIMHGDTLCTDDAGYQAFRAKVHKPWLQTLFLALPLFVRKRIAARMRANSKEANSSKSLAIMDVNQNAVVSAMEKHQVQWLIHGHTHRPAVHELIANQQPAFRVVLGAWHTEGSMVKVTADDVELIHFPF

| Compound | IC50 [1] [nM] | MIC (E. coli (ATCC 25922)) [µg/mL] | MIC [2] [µg/mL] |
| --- | --- | --- | --- |
| CNC1CC(=O)N(c2ccc(S(=O)(=O)N3CCN(c4cc(C(F)(F)F)cc(Cl)n4)CC3)cc2)C1 (stereo not drawn) [Example 44, 1-[4-[4-[6-chloro-4-(trifluoromethyl)-2-pyridyl]piperazin-1-yl]sulfonylphenyl]-4-(methylamino)pyrrolidin-2-one] | 197 | 1.73 (≈ 3.34 µM) | 3.47 (≈ 6.7 µM) |
| NCCNC1CC(=O)N(c2ccc(S(=O)(=O)N3CCN(c4cc(C(F)(F)F)cc(Cl)n4)CC3)cc2)C1 (stereo not drawn) [Example 45, 4-(2-Aminoethylamino)-1-[4-[4-[6-chloro-4-(trifluoromethyl)-2-pyridyl]piperazin-1-yl]sulfonylphenyl]pyrrolidin-2-one] | 45.7 | 3.65 (≈ 6.67 µM) | 7.29 (≈ 13.3 µM) |
| O=C1CC(NCCO)CN1c1ccc(S(=O)(=O)N2CCN(c3cc(C(F)(F)F)cc(Cl)n3)CC2)cc1 (stereo not drawn) [Example 46, 1-[4-[4-[6-Chloro-4-(trifluoromethyl)-2-pyridyl]piperazin-1-yl]sulfonylphenyl]-4-(2-hydroxyethylamino)pyrrolidin-2-one] | 9.12 | 1.83 (≈ 3.34 µM) | 3.65 (≈ 6.66 µM) |
| O=C1CC(N2C[C@@H](O)[C@@H](O)C2)CN1c1ccc(S(=O)(=O)N2CCN(c3cc(C(F)(F)F)cc(Cl)n3)CC2)cc1 (stereo partly drawn) [Example 48, 1-[4-[4-[6-Chloro-4-(trifluoromethyl)-2-pyridyl]piperazin-1-yl]sulfonylphenyl]-4-[(3S,4R)-3,4-dihydroxypyrrolidin-1-yl]pyrrolidin-2-one] | 6.78 | 1.84 (≈ 3.12 µM) | 3.69 (≈ 6.25 µM) |
| NCC1CN(C2CC(=O)N(c3ccc(S(=O)(=O)N4CCN(c5cc(C(F)(F)F)cc(Cl)n5)CC4)cc3)C2)C1 (stereo not drawn) [Example 49, 4-[3-(Aminomethyl)azetidin-1-yl]-1-[4-[4-[6-chloro-4-(trifluoromethyl)-2-pyridyl]piperazin-1-yl]sulfonylphenyl]pyrrolidin-2-one] | 82 | 3.87 (≈ 6.75 µM) | 7.74 (≈ 13.5 µM) |
| NC1CN(C2CC(=O)N(c3ccc(S(=O)(=O)N4CCN(c5cc(C(F)(F)F)cc(Cl)n5)CC4)cc3)C2)C1 (stereo not drawn) [Example 51, 4-(3-Aminoazetidin-1-yl)-1-[4-[4-[6-chloro-4-(trifluoromethyl)-2-pyridyl]piperazin-1-yl]sulfonylphenyl]pyrrolidin-2-one] | 53.7 | 3.78 (≈ 6.76 µM) | 15.1 (≈ 27.1 µM) |
| O=C1CC(N2CC3(CNC3)C2)CN1c1ccc(S(=O)(=O)N2CCN(c3cc(C(F)(F)F)cc(Cl)n3)CC2)cc1 (stereo not drawn) [Example 52, 1-[4-[4-[6-Chloro-4-(trifluoromethyl)-2-pyridyl]piperazin-1-yl]sulfonylphenyl]-4-(2,6-diazaspiro[3.3]heptan-2-yl)pyrrolidin-2-one] | 34.2 | 17.5 (≈ 29.9 µM) | 17.5 (≈ 29.9 µM) |
| O=C1CC(N2CCN[C@H](CO)C2)CN1c1ccc(S(=O)(=O)N2CCN(c3cc(C(F)(F)F)cc(Cl)n3)CC2)cc1 (stereo partly drawn) [Example 53, 1-[4-[4-[6-Chloro-4-(trifluoromethyl)-2-pyridyl]piperazin-1-yl]sulfonylphenyl]-4-[(3S)-3-(hydroxymethyl)piperazin-1-yl]pyrrolidin-2-one] | 6.63 | 2 (≈ 3.32 µM) | 3 (≈ 4.97 µM) |
| O=C1CC(N2CCN[C@@H](CO)C2)CN1c1ccc(S(=O)(=O)N2CCN(c3cc(C(F)(F)F)cc(Cl)n3)CC2)cc1 (stereo partly drawn) [Example 54, 1-[4-[4-[6-Chloro-4-(trifluoromethyl)-2-pyridyl]piperazin-1-yl]sulfonylphenyl]-4-[(3R)-3-(hydroxymethyl)piperazin-1-yl]pyrrolidin-2-one] | 19.9 | 2 (≈ 3.32 µM) | 4 (≈ 6.63 µM) |
| O=C1CC(N2C[C@@H]3C[C@H]2CN3)CN1c1ccc(S(=O)(=O)N2CCN(c3cc(C(F)(F)F)cc(Cl)n3)CC2)cc1 (stereo partly drawn) [Example 55, 1-[4-[4-[6-Chloro-4-(trifluoromethyl)-2-pyridyl]piperazin-1-yl]sulfonylphenyl]-4-[(1S,4S)-2,5-diazabicyclo[2.2.1]heptan-2-yl]pyrrolidin-2-one] | 51.3 | 3.88 (≈ 6.63 µM) | 7.77 (≈ 13.3 µM) |
| N[C@@H]1CN(C2CC(=O)N(c3ccc(S(=O)(=O)N4CCN(c5cc(C(F)(F)F)cc(Cl)n5)CC4)cc3)C2)C[C@H]1O (stereo partly drawn) [Example 56, 4-[(3R,4R)-3-amino-4-hydroxy-pyrrolidin-1-yl]-1-[4-[4-[6-chloro-4-(trifluoromethyl)-2-pyridyl]piperazin-1-yl]sulfonylphenyl]pyrrolidin-2-one] | 13.6 | 1.96 (≈ 3.33 µM) | 3.91 (≈ 6.64 µM) |
| N[C@@H]1CN(C2CC(=O)N(c3ccc(S(=O)(=O)N4CCN(c5cc(C(F)(F)F)cc(Cl)n5)CC4)cc3)C2)CC[C@H]1O (stereo partly drawn) [Example 57, 4-((3R,4R)-3-amino-4-hydroxypiperidin-1-yl)-1-(4-((4-(6-chloro-4-(trifluoromethyl)pyridin-2-yl)piperazin-1-yl)sulfonyl)phenyl)pyrrolidin-2-one] | 34.8 | 2 (≈ 3.32 µM) | 2 (≈ 3.32 µM) |
| O=C1CC(NC2CNC2)CN1c1ccc(S(=O)(=O)N2CCN(c3cc(C(F)(F)F)cc(Cl)n3)CC2)cc1 (stereo not drawn) [Example 58, 4-(Azetidin-3-ylamino)-1-[4-[4-[6-chloro-4-(trifluoromethyl)-2-pyridyl]piperazin-1-yl]sulfonylphenyl]pyrrolidin-2-one] | 28.6 | 7.44 (≈ 13.3 µM) | 14.9 (≈ 26.6 µM) |
| O=C1CC(NC2CCNC2)CN1c1ccc(S(=O)(=O)N2CCN(c3cc(C(F)(F)F)cc(Cl)n3)CC2)cc1 (stereo not drawn) [Example 59, 1-[4-[4-[6-Chloro-4-(trifluoromethyl)-2-pyridyl]piperazin-1-yl]sulfonylphenyl]-4-(pyrrolidin-3-ylamino)pyrrolidin-2-one] | 96 | 3.81 (≈ 6.65 µM) | 7.62 (≈ 13.3 µM) |
| O=C1CC(NC2CCNCC2)CN1c1ccc(S(=O)(=O)N2CCN(c3cc(C(F)(F)F)cc(Cl)n3)CC2)cc1 (stereo not drawn) [Example 60, 1-[4-[4-[6-Chloro-4-(trifluoromethyl)-2-pyridyl]piperazin-1-yl]sulfonylphenyl]-4-(4-piperidylamino)pyrrolidin-2-one] | 8.52 | 1.95 (≈ 3.32 µM) | 3.9 (≈ 6.64 µM) |
| CC1C(N)CC(=O)N1c1ccc(S(=O)(=O)N2CCN(c3cc(C(F)(F)F)cc(Cl)n3)CC2)cc1 (stereo not drawn) [Example 61, 4-Amino-1-[4-[4-[6-chloro-4-(trifluoromethyl)-2-pyridyl]piperazin-1-yl]sulfonylphenyl]-5-methyl-pyrrolidin-2-one] | 50.2 | 6.47 (≈ 12.5 µM) | 6.47 (≈ 12.5 µM) |
| NCC1CN(c2ccc(S(=O)(=O)N3CCN(c4cc(C(F)(F)F)cc(Cl)n4)CC3)cc2F)C(=O)O1 (stereo not drawn) [Example 63, 5-(Aminomethyl)-3-[4-[4-[6-chloro-4-(trifluoromethyl)-2-pyridyl]piperazin-1-yl]sulfonyl-2-fluoro-phenyl]oxazolidin-2-one] | 204 | 1.83 (≈ 3.4 µM) | 7.3 (≈ 13.6 µM) |
| NCC1CN(c2ccc(S(=O)(=O)N3CCN(c4cc(C(F)(F)F)cc(Cl)n4)CC3)c(F)c2)C(=O)O1 (stereo not drawn) [Example 64, 5-(Aminomethyl)-3-[4-[4-[6-chloro-4-(trifluoromethyl)-2-pyridyl]piperazin-1-yl]sulfonyl-3-fluoro-phenyl]oxazolidin-2-one] | 264 | 3.65 (≈ 6.79 µM) | 14.6 (≈ 27.1 µM) |
| N#CC1CN(c2cc(C(F)(F)F)cc(Cl)n2)CCN1S(=O)(=O)c1ccc(N2CC(N)CC2=O)cc1 (stereo not drawn) [Example 67, 1-[4-(4-Amino-2-oxo-pyrrolidin-1-yl)phenyl]sulfonyl-4-[6-chloro-4-(trifluoromethyl)-2-pyridyl]piperazine-2-carbonitrile] | 149 | 6.61 (≈ 12.5 µM) | 13.2 (≈ 25 µM) |
| NC1CC(=O)N(c2ccc(S(=O)(=O)N3CCN(c4cc(C(F)F)cc(Cl)n4)CC3)cc2)C1 (stereo not drawn) [Example 68, 4-Amino-1-[4-[4-[6-chloro-4-(difluoromethyl)-2-pyridyl]piperazin-1-yl]sulfonylphenyl]pyrrolidin-2-one] | 259 | 2.59 (≈ 5.33 µM) | 10.3 (≈ 21.3 µM) |
| NC1CC(=O)N(c2ccc(S(=O)(=O)N3CCN(c4cc(S(=O)(=O)C5CC5)cc(Cl)n4)CC3)cc2)C1 (stereo not drawn) [Example 69, 4-Amino-1-[4-[4-(6-chloro-4-cyclopropylsulfonyl-2-pyridyl)piperazin-1-yl]sulfonylphenyl]pyrrolidin-2-one] | 746 | 13.5 (≈ 25 µM) | 6.75 (≈ 12.5 µM) |
| NC1CC(=O)N(c2ccc(S(=O)(=O)N3CCN(c4cc(S(=O)(=O)C5CCOCC5)cc(Cl)n4)CC3)cc2)C1 (stereo not drawn) [Example 70, 4-Amino-1-[4-[4-(6-chloro-4-tetrahydropyran-4-ylsulfonyl-2-pyridyl)piperazin-1-yl]sulfonylphenyl]pyrrolidin-2-one] | 47.9 | 15.5 (≈ 26.6 µM) | 15.5 (≈ 26.6 µM) |
| N#CC1(c2cc(Cl)nc(N3CCN(S(=O)(=O)c4ccc(N5CC(N)CC5=O)cc4)CC3)c2)CC1 (stereo not drawn) [Example 71, 1-[2-[4-[4-(4-Amino-2-oxo-pyrrolidin-1-yl)phenyl]sulfonylpiperazin-1-yl]-6-chloro-4-pyridyl]cyclopropanecarbonitrile] | 591 | 12.5 (≈ 25 µM) | 12.5 (≈ 25 µM) |
| NC1CC(=O)N(c2ccc(S(=O)(=O)N3CCN(c4cc(Oc5ccccc5)cc(Cl)n4)CC3)cc2)C1 (stereo not drawn) [Example 72, 4-Amino-1-[4-[4-(6-chloro-4-phenoxy-2-pyridyl)piperazin-1-yl]sulfonylphenyl]pyrrolidin-2-one] | 407 | 7.06 (≈ 13.4 µM) | 7.06 (≈ 13.4 µM) |

Reference: patent US20250011300A1, “PIPERAZINYLSULFONYLARYL COMPOUNDS FOR TREATMENT OF BACTERIAL INFECTIONS” (Hoffmann-La Roche Inc., priority 2021, published 2025)
